Data as given in ChEMBL document CHEMBL3044874, “Synthesis and characterization of some heterocyclic schiff bases: potential anticonvulsant agents” (Med Chem Res, 2011).
Activity calls are given as the source filed them. The rule behind the calls is not given here.

Columns and labels:
Mus musculus [1] = assay: Anticonvulsant activity in Mus musculus Swiss albino (mouse) assessed as protection against strychnine-induced seizure at 300 mg/kg, ip; type: functional, organism-based; parameters: dose 300 mg/kg
Rattus norvegicus [2] = assay: Anticonvulsant activity in Rattus norvegicus Wistar (rat) assessed as protection against maximal electroshock-induced seizure at 30 mg/kg, po measured at 4 hr; type: functional, organism-based; parameters: dose 30 mg/kg
Mus musculus [3] = assay: Anticonvulsant activity in Mus musculus Swiss albino (mouse) assessed as protection against pentylenetetrazole-induced seizure at 300 mg/kg, ip; type: functional, organism-based; parameters: dose 300 mg/kg
Rattus norvegicus [4] = assay: Anticonvulsant activity in Rattus norvegicus Wistar (rat) assessed as protection against maximal electroshock-induced seizure at 30 mg/kg, po measured at 0.25 hr; type: functional, organism-based; parameters: dose 30 mg/kg
Rattus norvegicus [5] = assay: Anticonvulsant activity in Rattus norvegicus Wistar (rat) assessed as protection against maximal electroshock-induced seizure at 30 mg/kg, po measured at 1 hr; type: functional, organism-based; parameters: dose 30 mg/kg
Rattus norvegicus [6] = assay: Anticonvulsant activity in Rattus norvegicus Wistar (rat) assessed as protection against maximal electroshock-induced seizure at 30 mg/kg, po measured at 2 hr; type: functional, organism-based; parameters: dose 30 mg/kg
Rattus norvegicus [7] = assay: Anticonvulsant activity in Rattus norvegicus Wistar (rat) assessed as protection against maximal electroshock-induced seizure at 30 mg/kg, po measured at 0.5 hr; type: functional, organism-based; parameters: dose 30 mg/kg
Mus musculus [8] = assay: Anticonvulsant activity in ip dosed Mus musculus Swiss albino (mouse) assessed as protection against maximal electroshock-induced seizure; type: functional
Mus musculus [9] = assay: Anticonvulsant activity in ip dosed Mus musculus Swiss albino (mouse) assessed as protection against pentylenetetrazole-induced seizure; type: functional
[10] = Neurotoxicity against ip dosed Mus musculus Swiss albino (mouse) by rota rod test; type: toxicity, organism-based; conditions: in vivo
Mus musculus [11] = assay: Anticonvulsant activity in ip dosed Mus musculus Swiss albino (mouse) assessed as protection against maximal electroshock-induced seizure at 0.5 hr; type: functional; conditions: read-out: MED
Mus musculus [12] = assay: Anticonvulsant activity in Mus musculus Swiss albino (mouse) assessed as protection against strychnine-induced seizure at 300 mg/kg, ip measured at 0.5 hr; type: functional, organism-based; parameters: dose 300 mg/kg
Mus musculus [13] = assay: Neurotoxicity against ip dosed Mus musculus Swiss albino (mouse) at 4 hr by rota rod test; type: toxicity, organism-based; conditions: in vivo
Mus musculus [14] = assay: Anticonvulsant activity in Mus musculus Swiss albino (mouse) assessed as protection against pentylenetetrazole-induced seizure at 300 mg/kg, ip measured at 4 hr; type: functional, organism-based; parameters: dose 300 mg/kg
Mus musculus [15] = assay: Neurotoxicity against ip dosed Mus musculus Swiss albino (mouse) at 0.5 hr by rota rod test; type: toxicity, organism-based; conditions: in vivo
Mus musculus [16] = assay: Anticonvulsant activity in Mus musculus Swiss albino (mouse) assessed as protection against strychnine-induced seizure at 300 mg/kg, ip measured at 4 hr; type: functional, organism-based; parameters: dose 300 mg/kg
[17] = Protection index, ratio TD50 for neurotoxicity to ED50 for protection against maximal electroshock-induced seizure in Mus musculus Swiss albino (mouse); type: toxicity, organism-based; conditions: in vivo, read-out: Ratio TD50/ED50
Mus musculus [18] = assay: Anticonvulsant activity in ip dosed Mus musculus Swiss albino (mouse) assessed as protection against maximal electroshock-induced seizure at 4 hr; type: functional; conditions: read-out: MED
Mus musculus [19] = assay: Anticonvulsant activity in Mus musculus Swiss albino (mouse) assessed as protection against pentylenetetrazole-induced seizure at 300 mg/kg, ip measured at 0.5 hr; type: functional, organism-based; parameters: dose 300 mg/kg
Mus musculus [20] = assay: Anticonvulsant activity in ip dosed Mus musculus Swiss albino (mouse) assessed as protection against strychnine-induced seizure at 4 hr; type: functional; conditions: read-out: MED
Mus musculus [21] = assay: Anticonvulsant activity in ip dosed Mus musculus Swiss albino (mouse) assessed as protection against strychnine-induced seizure at 0.5 hr; type: functional; conditions: read-out: MED
Mus musculus [22] = assay: Anticonvulsant activity in ip dosed Mus musculus Swiss albino (mouse) assessed as protection against strychnine-induced seizure; type: functional
Mus musculus [23] = assay: Neurotoxicity against Mus musculus Swiss albino (mouse) at 300 mg/kg, ip measured at 4 hr by rota rod test; type: toxicity, organism-based; parameters: dose 300 mg/kg, route intraperitoneal; conditions: in vivo
Mus musculus [24] = assay: Anticonvulsant activity in ip dosed Mus musculus Swiss albino (mouse) assessed as protection against pentylenetetrazole-induced seizure at 4 hr; type: functional; conditions: read-out: MED
Mus musculus [25] = assay: Anticonvulsant activity in ip dosed Mus musculus Swiss albino (mouse) assessed as protection against pentylenetetrazole-induced seizure at 0.5 hr; type: functional; conditions: read-out: MED

SMILES | Activity (Mus musculus [1]) | Activity (Rattus norvegicus [2]) | Activity (Mus musculus [3]) | Activity (Rattus norvegicus [4]) | Activity (Rattus norvegicus [5]) | Activity (Rattus norvegicus [6]) | Activity (Rattus norvegicus [7]) | ED50 (Mus musculus [8]) | TD50 [10] | minimal effective dose (Mus musculus [11]) | MTC (Mus musculus [13]) | Activity (Mus musculus [14]) | MTC (Mus musculus [15]) | selectivity ratio [17] | minimal effective dose (Mus musculus [18]) | Activity (Mus musculus [19]) | minimal effective dose (Mus musculus [20]) | minimal effective dose (Mus musculus [21]) | ED50 (Mus musculus [22]) | also measured
O=C1NC(=O)C(c2ccccc2)(c2ccccc2)N1 | inactive | Active | inactive | inactive | Active | Active | Active |  |  |  |  |  |  |  |  |  |  |  |  | 
CCC1(c2ccccc2)C(=O)NC(=O)NC1=O [PHENOBARBITAL] | inactive |  |  |  |  |  |  | 21.8 mg/kg |  |  |  |  |  |  |  |  |  |  |  | ED50 (Mus musculus [9]): 13.2 mg/kg
COc1ccccc1/C=N/Cc1cccnc1 | inactive | Active | inactive | Active | Active | Active | Active | 11.7 mg/kg | 176 mg/kg | 30 mg/kg | 300 mg/kg | inactive | 300 mg/kg | 15 | 30 mg/kg | inactive |  |  |  | Activity (Mus musculus [12]): inactive; Activity (Mus musculus [16]): inactive
C(=C\c1ccccc1)/C=N/Cc1cccnc1 | inactive | inactive | inactive | Active | inactive | inactive | inactive | 36.3 mg/kg | 84.8 mg/kg | 30 mg/kg | 100 mg/kg | inactive | 100 mg/kg | 2.34 | 300 mg/kg | inactive |  |  |  | Activity (Mus musculus [12]): inactive; Activity (Mus musculus [16]): inactive
COc1ccc(/C=N/Cc2cccnc2)cc1O | inactive | Active | inactive | Active | Active | Active | Active | 6.39 mg/kg | 198 mg/kg | 30 mg/kg | 100 mg/kg | inactive | 300 mg/kg | 31 | 30 mg/kg | inactive | 300 mg/kg | 100 mg/kg |  | 
Clc1ccccc1/C=N/Cc1cccnc1 |  | Active | inactive | Active | Active | Active | Active | 11.7 mg/kg | 202 mg/kg | 30 mg/kg |  | inactive | 300 mg/kg | 17.3 | 30 mg/kg | inactive | 100 mg/kg | 100 mg/kg | 93.6 mg/kg | Activity (Mus musculus [23]): Non-toxic
Clc1ccc(/C=N/Cc2cccnc2)cc1 | inactive | Active | inactive | inactive | inactive | inactive | inactive | 53 mg/kg | 125 mg/kg | 100 mg/kg |  | inactive | 100 mg/kg | 2.35 | 100 mg/kg | inactive | 300 mg/kg | 100 mg/kg |  | Activity (Mus musculus [23]): Non-toxic
C(=N\Cc1cccnc1)/c1ccccc1 |  | Active | inactive | inactive | Active | Active | inactive | 53 mg/kg | 112 mg/kg | 100 mg/kg | 100 mg/kg | inactive | 100 mg/kg | 2.1 | 30 mg/kg | inactive | 100 mg/kg | 100 mg/kg | 62.4 mg/kg | 
COc1cc(/C=N/Cc2cccnc2)ccc1O |  | Active |  | inactive | Active | Active | inactive | 53 mg/kg | 176 mg/kg | 100 mg/kg |  |  | 300 mg/kg | 3.31 | 30 mg/kg |  | 30 mg/kg | 30 mg/kg | 14.2 mg/kg | minimal effective dose (Mus musculus [24]): 30 mg/kg; ED50 (Mus musculus [9]): 6.44 mg/kg; minimal effective dose (Mus musculus [25]): 30 mg/kg; Activity (Mus musculus [23]): Non-toxic
OC(/C(=N\Cc1cccnc1)c1ccccc1)c1ccccc1 (configuration not stated) |  | inactive | inactive | Active | Active | Active | Active | 20.8 mg/kg | 11.9 mg/kg | 30 mg/kg | 30 mg/kg | inactive | 30 mg/kg | 0.57 | 30 mg/kg |  |  | 100 mg/kg | 106 mg/kg | Activity (Mus musculus [16]): inactive; minimal effective dose (Mus musculus [25]): 300 mg/kg
C/C(=N\Cc1cccnc1)c1cccc(N)c1 | inactive | Active | inactive | Active | Active | Active | Active | 8.64 mg/kg | 60.2 mg/kg | 30 mg/kg | 100 mg/kg | inactive | 100 mg/kg | 6.97 | 30 mg/kg | inactive | 100 mg/kg | 30 mg/kg |  | 
